The subject of series [1] is ACE2. Kind of series: Externalization of ACE2 on cell surface, anti-human ACE2 antibody / horseradish peroxidase staining (FIG. 2). The following applies: human brain endothelial cells, 10 mM Diminazene for 3 hours, n=4. Format: cell-based. Here is the method: FIG. 2 is a graph of externalization of ACE2 on cell surface after treatment with diminazene. The inventors cultured human brain endothelial cells to confluency and exposed these cells to 10 mM Diminazene for 3 hours after which they were fixed in 3.7% phosphate buffered formaldehyde for 30 mins. Cells were then incubated in 1:250 rabbit antibhuman ACE2 (overnite) followed by washes and then goat anti rabbit horseradish peroxidase (1 h).

For series [2], the system named is viral infection of ACE2 expressing cell monolayers (WT spike). Kind of series: Infectivity of ACE2 expressing cell monolayers by virus (WT spike) (FIGS. 3-6). Format: cell-based. The following applies: for infectivity of cells: concentrations between 1 mM and 0.01 mM. Here is the method:
This is equivalent to a high dose of 515 mg/kg (1 mM) to the lowest dose of 5.15 mg/kg (0.01 mM). Assuming 100% biological distribution in a 70 kg human, 10^-4M is a dose of 3.5 g and 10^-5M is 350 mg.
This is equivalent to a high dose of 515 mg/kg (1 mM) to the lowest dose of 5.15 mg/kg.

Another series can be described thus: LD50. Format: in vivo. The following applies: 70 kg human.
For series [3] the following is noted: in vivo; cited from earlier work.
In series [4] the test system is T. congolense-infected mice. The conditions noted are these: cited from earlier work.
Series [5] deals with ACE2. Format: cell-based.

Results on two molecules are retold here after patent publication US20220409637A1, “COVID-19 THERAPEUTICS AND METHODS OF TREATMENT” (priority 2020, published 2022).

In the case of `N=C(N)c1ccc(/N=N/Nc2ccc(C(=N)N)cc2)cc1` [Diminazene, 4,4′-(1-Triazene-1,3-diyl) bis(benzenecarboximidamide)], in the series with ACE2 [1], the “average ACE2 signal on cell surface of treated monolayers” value was “increased average signal in treated monolayers consistent with externalization of ACE2 on the cell surface”. For the same molecule, the infectivity of cells entry in series [2] (infectious ratio 1:100 viruses per cell, FIG. 3) is reported as “dose-dependent reduction in the infectivity of cells”; in series [2] (infectious ratio 5:100 viruses per cell, FIG. 4), “dose-dependent reduction in the infectivity of cells”; in series [2] (infectious ratio 10:100 viruses per cell, FIG. 5), “dose-dependent reduction in the infectivity of cells”. In addition, the “LD50 as total dose” value in “LD50” is roughly 24 grams. Besides, the 50% lethal dose (LD50) (commonly the dose at which mortality reaches 50%) in series [3] is listed as roughly 350 mg/kg. Further, the “serum pro-inflammatory cytokine levels” value in series [4] is given as “reduces serum pro-inflammatory cytokine levels”.

For the molecule `CC(=O)NCC(=O)O.CC(=O)NCC(=O)O.N=C(N)c1ccc(N=NNc2ccc(C(=N)N)cc2)cc1` [diminazene aceturate], the “infectivity of cells expressing WT spike (amount of green signal produced by viral infection)” value in series [2] (ACE2 expressing cell monolayers, infectious ratio 5:100 viruses per cell, 1 mM to 0.01 mM, FIG. 6) is reported as “dose-dependent reduction in the infectivity of cells expressing WT spike”. For the same molecule, the “externalization of ACE2” value with ACE2 [5] is reported as “concentration-dependently causes externalization of ACE2”. For the same molecule, in the series on ACE2 [5] (target cells, FIG. 1), the “ACE2-mediated binding and signal of VSV virus-expressing COVID-spike protein in target cells” value is “increases ACE2-mediated binding and signal”.
